Laboratory results taken from patent US20250025615A1, “NEW DIALYSIS FLUID” (GAMBRO LUNDIA AB, priority 2021, published 2025).

What was measured:
Type in all cases: cell-based, human
glioma cell line A172 = experiment: Example 2: culture in Medium A-C with BOHB and/or Acac (CellTiter-Glo); conditions: for growth: normoxic, combined experiment 2-6, 16 mM BOHB or 8 mM Acac added separately, FIG. 9
Experimental: (§1) The ketone bodies acetoacetate (Acac), BOHB and acetone are produced by the liver during fasting or starvation. BOHB is the major ketone body in mammals, while Acac constitutes around 20%.
(§2) Cells were maintained in RPMI-1640 medium (31870-025 GIBCO) with the addition of 10% serum, 200 mM L-glutamine and 1% penicillin-streptomycin (PEST) in humidified chambers at 37° C. and 5% CO2. For hypoxic conditions (5% O2), cells were maintained in a Galaxy 14 S CO2 incubator (Eppendorf) where N2 was used to adjust the O2 level to 5%.
(§3) Medium B and C were prepared from RPMI1640 modified medium powder without L-glutamine, glucose and amino acids (R9010-01, US Biological Life Sciences). For 1L medium, 7.4 g powder was dissolved in 900 ml sterile water without heating and 2 g sodium bicarbonate was added. Amino acids listed in Table 5 were added to the same concentration as in full RPMI1640 medium (Table 5). After all additions, the medium was sterilized by filtering through 0.22 um membranes and divided into two bottles.
(§4) To model Cancer Dialysis conditions in Medium C, the levels of these nutrients were reduced to 50% of the physiological levels. As for Medium A, 1% PEST and 10% dialyzed serum were added to Medium B and C. Sodium pyruvate, that is a common addition in cell culture medium, was not present in any of the used media.
(§5) Stock solutions of DL-β-Hydroxybutyric acid sodium salt (H6501, Sigma Aldrich) and Lithium Acetoacetate (A8509, Sigma Aldrich) were prepared in water, sterile filtered, aliquoted and stored at −20° C. Lithium Chloride (L7026, Sigma Aldrich) was used as a control for the addition of Lithium in the Li-Acac.
(§6) CellTiter-Glo Luminescent cell viability assay (Promega) was used as a readout of cell numbers according to the manufacturers' instructions. In experiments shown in FIG. 7-8, double plates were seeded and treated. One set of plates was used for collection of medium for lactate measurement (see below) and the CellTiterGlo-assay. The other set of plates was frozen at −80° C. at the end of the experiment. The frozen plates were intended for the CyQuant cell proliferation assay (Thermo Fisher) that measures the amount of DNA per well. Analysis of the amounts of cells by both CellTiterGlo and CyQuant assays would ensure that effects of the culture conditions on viability or growth rate would not be concealed by simultaneous changes in ATP-levels per cell.
(§7) Next, it was decided to also include Acac in the study and analyze the viability of cells cultured in the presence of BOHB and Acac alone or in combination in Medium A-C. The experiment was performed at 21% and 5% O2. The experiments were made with glioma cell lines A172 and U118MG.
(§8) Being a chiral molecule, BOHB exists as two enantiomers, D-and L-BOHB. D-BOHB is normally produced and metabolized in humans. The BOHB-salt used in this study contains a mixture of 50:50 of D-and L-BOHB. In order to ensure a high presence of the active D-form, the total concentration of BOHB added was increased to 16 mM, giving a level of 8 mM D-BOHB. To keep the total concentration of active ketones constant, 8 mM Acac was used, and for the combination of both ketones, the levels were adjusted to 4 mM Acac and 8 mM BOHB (containing 4 mM D-BOHB).
(§9) The Acac available for in vitro use is in the form of a lithium salt. Since lithium itself can affect the viability of cancer cells [Cohen-Harazi et al., Anticancer Res 2020; 40:3831-3837], 8 mM LiCl was used as a control for the 8 mM Acac data point and 4 mM LiCl was used as a control for the 4 mM Acac/8 mM BOHB data.

glioma cell line U118MG = experiment: as above
Experimental: as §1, §2, §3, §4, §5, §6, §7, §8, §9

A172 (glioblastoma) = experiment: Study 2: cell viability (CellTiter-Glo) in DMEM without sodium pyruvate; conditions: increase in BOHB concentration (0, 4, 12 mM), no pyruvate, 3 d
Experimental: (§10) Cell lines established from human colon carcinoma (HCT15, NCI-H508 and COLO205), renal cell carcinoma (769-P, 786-O and RCC4) and glioblastoma (LN-18, A-172 and U-118 MG) were selected for the analysis. All cell lines were obtained from American Type Culture Collection (ATCC, LGC standards, UK) except for RCC4 and HCT15 that was purchased from Sigma-Aldrich (Merck, Germany). In addition, primary human renal cell carcinoma (RCC) cells isolated from patient nephrectomies were included in the study. The culture conditions were as recommended by American Type Culture Collection (ATCC) were followed, that is to grow cells in DMEM medium with the addition of 1 mM sodium pyruvate, which was also added to the RPMI-1640 medium in order to keep the conditions more similar 769-P, RCC4, LN-18, A-172, U-118 MG and the primary RCC cells were cultured in DMEM high glucose medium, while 786-O HCT15, NCI-H508 and COLO205 were cultured in RPMI-1640 medium according to the recommendations from ATCC. […]
(§11) CellTiter-Glo Luminescent cell viability assay (Promega) was used as a readout of viability.
(§12) For each cell line, optimal number of cells as determined above were seeded into 96-well plates on day 0. […] After 3d incubation in test condition medium, with daily medium changes, cell viability was determined using the CellTiter-Glo viability test. […]

[1] = system: RCC4 (renal cell carcinoma); experiment: as above; conditions: increase in BOHB concentration (0, 4, 12 mM), no pyruvate, 3 d
Experimental: as §10, §11, §12

RCC4 renal carcinoma = experiment: Example 2: growth in Medium A-C with or without ketones (CellTiter-Glo); conditions: nutrient restricted Medium C, FIG. 11
Experimental: To study the effect of a nutrient restricted ketogenic environment on cancer cell growth in vitro, three different cell culture media were formulated. Medium A was full RPMI1640 medium that the cell lines routinely are cultured in. Medium B was used as an approximation of the conditions found in normal human serum. The levels of glucose, glutamine, serine, glycine and arginine were adjusted to match normal physiological levels found in human serum. These nutrients were selected based on their reported use as energy source and effects on cancer cell metabolic state. Medium C was used to emulate the ketogenic nutrient restricted Cancer Dialysis condition. Here, the levels of the selected nutrients were reduced to half of the physiological levels in Medium B, and the ketone body BOHB was added. […]
All cell lines were purchased from ATCC (ATCC, LGC standards) except for RCC4 that was from Sigma-Aldrich (Merck). […] Optimal seeding density was determined for each cell line in 96-well plates cultured for 3 days in standard cell culture medium. […]
In Medium B, to mimic physiological conditions, the levels of glutamine, serine, glycine, arginine and glucose were set to the median of measured levels in human serum, based on data from the Mayo Clinic Laboratories (https://www.mayocliniclabs.com/test-catalog/Clinical+and+Interpretive/9265). […]

[2] = Medium A, normoxia and hypoxia, 8 mM Acac compared to 8 mM LiCl control
[3] = Medium B, 21% O2, 8 mM Acac compared to 8 mM LiCl control
[4] = Medium C, 8 mM Acac alone compared to 8 mM LiCl control
[5] = Medium A, normoxia and hypoxia, 16 mM BOHB alone
[6] = Medium C, 21 and 5% O2, 16 mM BOHB

SMILES | number of cells (glioma cell line A172; [2]) | number of cells (glioma cell line A172; [3]) | amounts of cells (glioma cell line A172; [4]) | growth (glioma cell line A172; Medium C) | number of cells (glioma cell line U118MG; [2]) | number of cells (glioma cell line U118MG; [3]) | amounts of cells (glioma cell line U118MG; [4]) | proliferation of cells (cell viability) (A172 (glioblastoma)) | proliferation of cells (cell viability) [1] | increased sensitivity to high levels of ketones (RCC4 renal carcinoma) | growth inhibitory effect (glioma cell line A172; [5]) | number of cells, % of the amount in Medium B without BOHB (glioma cell line A172; Medium B, hypoxia, 16 mM BOHB) | number of cells, % compared to C-medium without BOHB (glioma cell line A172; [6]) | growth inhibitory effect (glioma cell line U118MG; [5]) | number of cells, % compared to C-medium without BOHB (glioma cell line U118MG; [6])
CC(=O)CC(=O)[O-].[Li+] [Acac, Lithium Acetoacetate] | did not reduce the number of cells further | reduced the number of cells significantly | did not significantly reduce the amounts of cells | trend of reduced growth | did not reduce the number of cells further | reduced the number of cells significantly | did not significantly reduce the amounts of cells | – | – | – | – | – | – | – | –
CC(O)CC(=O)[O-].[Na+] (racemic) [BOHB, DL-β-Hydroxybutyric acid sodium salt] | – | – | – | trend of reduced growth | – | – | – | suppresses the proliferation of cells | suppresses the proliferation of cells | not found | no growth inhibitory effect | approximately 70% | around 30% | no growth inhibitory effect | around 30%
